Experimental data published in BigSolDB 2.1.

O=C1C2C3C=CC(C3)C2C(=O)N1O (stereo not drawn)
solubility (mole fraction)
Conditions	278.15 K	283.15 K	288.15 K	293.15 K	298.15 K	303.15 K	308.15 K	313.15 K	318.15 K	323.15 K
in 1,4-dioxane	–	–	0.0796	0.0879	0.0963	0.107	0.115	0.128	0.138	0.153
in 2-butoxyethanol	0.035	0.0408	0.0458	0.0536	0.0601	0.068	0.077	0.087	0.0989	0.11
in 2-ethoxyethanol	0.0699	0.0774	0.0856	0.093	0.101	0.112	0.121	0.132	0.144	0.158
in 2-methoxyethanol	0.106	0.115	0.122	0.131	0.141	0.154	0.164	0.179	0.188	0.205
in 2-propoxyethanol	0.0446	0.0502	0.0566	0.0645	0.0718	0.0804	0.0896	0.0998	0.112	0.123
in acetone	0.0266	0.0317	0.0374	0.0447	0.052	0.0606	0.0706	0.0817	0.0938	0.108
in acetonitrile	0.0165	0.0201	0.0223	0.0258	0.0298	0.034	0.0387	0.0443	0.0505	0.0587
in ethanol	0.0303	0.0352	0.042	0.051	0.0592	0.0703	0.082	0.0969	0.112	0.131
in ethyl acetate	0.00721	0.00912	0.0112	0.0134	0.0156	0.0192	0.0229	0.0271	0.0323	0.0373
in isopropanol	0.0197	0.0238	0.0287	0.0338	0.0403	0.0495	0.0577	0.0672	0.0774	0.089
in methanol	0.0706	0.0796	0.0896	0.102	0.111	0.128	0.138	0.151	0.167	0.181
in n-propanol	0.0192	0.0231	0.0274	0.034	0.0401	0.0488	0.0572	0.0651	0.0744	0.0885
